Test results as given in ChEMBL document CHEMBL5727401, “Mixed lineage kinase inhibitors for HIV/AIDS therapies” (2019).

Molecular target: Mitogen-activated protein kinase kinase kinase 11 (Homo sapiens, UniProt Q16584)
Assay: Radiometric Filter Plate MLK3 Assay: 200 ng (130 nM) MLK3 (Dundee, DU8313) was incubated with 1 μM inactive MKK7b (Dundee, DU703) in the presence of 2 μM cold ATP (Km) and 0.5 μCi/assay 33P ATP and appropriate concentrations of compounds. After a twenty minute incubation, the reactions were washed through filter plates and read on a scintillation counter.

Mitogen-activated protein kinase kinase kinase 11, sequence (Q16584 whole entry): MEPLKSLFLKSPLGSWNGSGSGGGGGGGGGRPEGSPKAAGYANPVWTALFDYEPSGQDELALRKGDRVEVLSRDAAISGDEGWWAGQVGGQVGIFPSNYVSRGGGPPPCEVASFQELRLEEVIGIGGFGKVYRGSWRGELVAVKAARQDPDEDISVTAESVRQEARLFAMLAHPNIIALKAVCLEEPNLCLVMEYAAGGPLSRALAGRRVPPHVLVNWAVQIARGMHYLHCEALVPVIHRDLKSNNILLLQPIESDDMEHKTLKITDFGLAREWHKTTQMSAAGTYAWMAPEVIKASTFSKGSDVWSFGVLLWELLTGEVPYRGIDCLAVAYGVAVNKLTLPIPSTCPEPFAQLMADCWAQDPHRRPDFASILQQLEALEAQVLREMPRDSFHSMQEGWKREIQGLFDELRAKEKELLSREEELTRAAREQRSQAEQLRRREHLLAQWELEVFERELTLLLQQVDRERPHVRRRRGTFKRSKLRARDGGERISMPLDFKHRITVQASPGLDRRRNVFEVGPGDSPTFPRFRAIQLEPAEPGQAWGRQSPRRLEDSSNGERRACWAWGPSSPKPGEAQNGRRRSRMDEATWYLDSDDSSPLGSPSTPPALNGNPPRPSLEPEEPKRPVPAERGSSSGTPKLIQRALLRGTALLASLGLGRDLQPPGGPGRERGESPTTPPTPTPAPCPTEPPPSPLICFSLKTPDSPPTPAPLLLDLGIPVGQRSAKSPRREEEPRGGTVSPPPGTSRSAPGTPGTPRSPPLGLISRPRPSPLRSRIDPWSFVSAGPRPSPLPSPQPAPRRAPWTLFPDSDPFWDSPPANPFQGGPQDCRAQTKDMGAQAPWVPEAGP

An IC50 of under 100 nM was found for `CN1CCN(Cc2ccc(-c3cnc4[nH]cc(-c5cnc6[nH]ccc6c5)c4c3)cc2)CC1` in this work.

An IC50 of under 100 nM was found for `c1cn(Cc2ccc(-c3cnc4[nH]cc(-c5ccc6[nH]ccc6c5)c4c3)cc2)cn1` in this work.
